Assay results from the NIST ThermoML archive (doi:10.1016/j.jct.2012.08.010).

Assay: refractive index (Na D-line) (dimensionless); φn = volume fraction of the nth substance listed
Settings: 101 kPa, Liquid, Standard Abbe refractometry

C=C[Si]1(C)O[Si](C)(C=C)O[Si](C)(C=C)O[Si](C)(C=C)O1 (stereo not given) [2,4,6,8-tetramethyl-2,4,6,8-tetravinylcycloterasiloxane] + Cc1ccccc1C
Settings | refractive index
288.15 K, φ1 = 0.1323 | 1.49868
288.15 K, φ1 = 0.2522 | 1.49036
288.15 K, φ1 = 0.3383 | 1.4844
288.15 K, φ1 = 0.4201 | 1.47866
288.15 K, φ1 = 0.4909 | 1.47364
288.15 K, φ1 = 0.5559 | 1.46898
288.15 K, φ1 = 0.6028 | 1.4657
288.15 K, φ1 = 0.6571 | 1.46179
288.15 K, φ1 = 0.7017 | 1.45858
288.15 K, φ1 = 0.7422 | 1.4556
288.15 K, φ1 = 0.7787 | 1.45298
288.15 K, φ1 = 0.8113 | 1.45065
288.15 K, φ1 = 0.842 | 1.44839
288.15 K, φ1 = 0.8679 | 1.44648
288.15 K, φ1 = 0.8958 | 1.44445
288.15 K, φ1 = 0.9198 | 1.44269
288.15 K, φ1 = 0.942 | 1.44102
288.15 K, φ1 = 0.9794 | 1.43827
288.15 K, φ1 = 1 | 1.43674
298.15 K, φ1 = 0.1324 | 1.49359
298.15 K, φ1 = 0.2524 | 1.48535
298.15 K, φ1 = 0.3385 | 1.47939
298.15 K, φ1 = 0.4203 | 1.4737
298.15 K, φ1 = 0.4911 | 1.46872
298.15 K, φ1 = 0.5561 | 1.46412
298.15 K, φ1 = 0.603 | 1.46081
298.15 K, φ1 = 0.6573 | 1.45693
298.15 K, φ1 = 0.7019 | 1.45375
298.15 K, φ1 = 0.7423 | 1.45081
298.15 K, φ1 = 0.7788 | 1.44819
298.15 K, φ1 = 0.8114 | 1.44585
298.15 K, φ1 = 0.8421 | 1.4436
298.15 K, φ1 = 0.868 | 1.44172
298.15 K, φ1 = 0.8958 | 1.43977
298.15 K, φ1 = 0.9199 | 1.43795
298.15 K, φ1 = 0.9421 | 1.4363
298.15 K, φ1 = 0.9794 | 1.43354
298.15 K, φ1 = 1 | 1.43202
308.15 K, φ1 = 0.1325 | 1.48836
308.15 K, φ1 = 0.2526 | 1.48017
308.15 K, φ1 = 0.3387 | 1.47425
308.15 K, φ1 = 0.4205 | 1.46859
308.15 K, φ1 = 0.4913 | 1.46366
308.15 K, φ1 = 0.5563 | 1.45909
308.15 K, φ1 = 0.6032 | 1.45581
308.15 K, φ1 = 0.6575 | 1.45196
308.15 K, φ1 = 0.7021 | 1.44881
308.15 K, φ1 = 0.7425 | 1.4459
308.15 K, φ1 = 0.779 | 1.44332
308.15 K, φ1 = 0.8116 | 1.441
308.15 K, φ1 = 0.8422 | 1.43878
308.15 K, φ1 = 0.8681 | 1.43691
308.15 K, φ1 = 0.8959 | 1.43489
308.15 K, φ1 = 0.9199 | 1.43317
308.15 K, φ1 = 0.9421 | 1.43154
308.15 K, φ1 = 0.9794 | 1.42881
308.15 K, φ1 = 1 | 1.4273
318.15 K, φ1 = 0.1326 | 1.48315
318.15 K, φ1 = 0.2527 | 1.47503
318.15 K, φ1 = 0.3389 | 1.46915
318.15 K, φ1 = 0.4207 | 1.46354
318.15 K, φ1 = 0.4915 | 1.45862
318.15 K, φ1 = 0.5565 | 1.45412
318.15 K, φ1 = 0.6034 | 1.45086
318.15 K, φ1 = 0.6577 | 1.44704
318.15 K, φ1 = 0.7022 | 1.44393
318.15 K, φ1 = 0.7426 | 1.44105
318.15 K, φ1 = 0.7791 | 1.43846
318.15 K, φ1 = 0.8117 | 1.4362
318.15 K, φ1 = 0.8423 | 1.43396
318.15 K, φ1 = 0.8682 | 1.43215
318.15 K, φ1 = 0.896 | 1.43012
318.15 K, φ1 = 0.92 | 1.4284
318.15 K, φ1 = 0.9421 | 1.42678
318.15 K, φ1 = 0.9794 | 1.42407
318.15 K, φ1 = 1 | 1.42257
328.15 K, φ1 = 0.1326 | 1.4779
328.15 K, φ1 = 0.2528 | 1.46957
328.15 K, φ1 = 0.339 | 1.46397
328.15 K, φ1 = 0.4208 | 1.45836
328.15 K, φ1 = 0.4916 | 1.45349
328.15 K, φ1 = 0.5567 | 1.44897
328.15 K, φ1 = 0.6035 | 1.44567
328.15 K, φ1 = 0.6578 | 1.44199
328.15 K, φ1 = 0.7023 | 1.43887
328.15 K, φ1 = 0.7427 | 1.43597
328.15 K, φ1 = 0.7792 | 1.43343
328.15 K, φ1 = 0.8118 | 1.43123
328.15 K, φ1 = 0.8423 | 1.42902
328.15 K, φ1 = 0.8683 | 1.42718
328.15 K, φ1 = 0.896 | 1.42526
328.15 K, φ1 = 0.92 | 1.42355
328.15 K, φ1 = 0.9422 | 1.42195
328.15 K, φ1 = 0.9794 | 1.41933
328.15 K, φ1 = 1 | 1.41785
